From patent publication US9902728B2, “Pyrrolo and pyrazolopyrimidines as ubiquitin-specific protease 7 inhibitors” (Forma Therapeutics, Inc., priority 2014, dated 2018)

molecular target: T1, USP7 (Homo sapiens, UniProt Q93009); experiment: USP7 Assay A (Ubitquin-Rhodamine 110 Assay); type: biochemical; details: USP7_IC50, USP7 activity in USP7 assay A and B (table does not say which assay per compound)
T1 construct: USP7, construct USP7 (208-1102) 6*His, Viva Biotech; 6xHis (C); purchased Viva Biotech
T1 sequence (Q93009 208-1102): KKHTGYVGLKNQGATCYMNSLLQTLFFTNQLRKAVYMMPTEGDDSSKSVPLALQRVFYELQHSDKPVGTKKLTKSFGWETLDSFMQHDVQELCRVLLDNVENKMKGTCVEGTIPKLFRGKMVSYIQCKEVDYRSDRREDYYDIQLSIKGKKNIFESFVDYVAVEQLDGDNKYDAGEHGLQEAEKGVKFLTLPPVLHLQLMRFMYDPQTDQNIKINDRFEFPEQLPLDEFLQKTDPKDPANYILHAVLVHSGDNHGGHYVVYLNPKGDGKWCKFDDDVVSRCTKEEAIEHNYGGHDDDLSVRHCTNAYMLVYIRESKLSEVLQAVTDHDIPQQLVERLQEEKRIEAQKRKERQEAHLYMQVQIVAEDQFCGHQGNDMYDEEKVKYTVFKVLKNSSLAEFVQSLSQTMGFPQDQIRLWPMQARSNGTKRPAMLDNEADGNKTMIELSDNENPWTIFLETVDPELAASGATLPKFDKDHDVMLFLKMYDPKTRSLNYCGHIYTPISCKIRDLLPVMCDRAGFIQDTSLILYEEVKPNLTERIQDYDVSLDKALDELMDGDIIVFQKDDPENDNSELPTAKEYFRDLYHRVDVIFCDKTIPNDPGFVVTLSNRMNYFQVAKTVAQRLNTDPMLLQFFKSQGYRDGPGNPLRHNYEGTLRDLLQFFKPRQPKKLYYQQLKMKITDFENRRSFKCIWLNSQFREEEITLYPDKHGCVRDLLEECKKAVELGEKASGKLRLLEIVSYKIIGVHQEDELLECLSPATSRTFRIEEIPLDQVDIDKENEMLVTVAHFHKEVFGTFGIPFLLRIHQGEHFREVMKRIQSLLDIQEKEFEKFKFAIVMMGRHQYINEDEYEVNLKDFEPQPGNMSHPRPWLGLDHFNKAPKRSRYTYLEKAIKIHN
In short: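 Ub-Rh110 cleavage in 20 mM Tris-HCl pH 8.0 with 1 mM GSH, 0.03% BGG, 0.01% Triton X-100; compound preincubated with enzyme 30 min before substrate.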

Row | Compound | IC50 [nM]
1 | CN1C2CCC1CN(c1cccc(-n3ncc4c(=O)n(CC5(O)CCN(C(=O)C6(C)CC6)CC5)cnc43)c1)C2 [Compound I-1644] | < 200
2 | CC1(C(=O)N2CCC(O)(Cn3cnc4c(cnn4-c4cccc(N5CC6CC(C5)O6)c4)c3=O)CC2)CC1 [Compound I-1692] | < 200

same assay, conditions: USP7 activity in USP7 assay A and B (table does not say which assay per compound); read-out: USP7_IC50

Row | Compound | IC50 [nM]
3 | CC1(C(=O)N2CCC(O)(Cn3cnc4c(cnn4-c4cccc(N5CCC(F)CC5)c4)c3=O)CC2)CC1 [Compound I-1561] | < 200
4 | CC1(C(=O)N2CCC(O)(Cn3cnc4c(cnn4-c4ccc(N5CC(C6CCOCC6)C5)cc4)c3=O)CC2)CC1 [Compound I-1570] | 200 to 1000
5 | O=C(c1ccc(F)cc1)N1CCC(O)(Cn2cnc3c(cnn3-c3ccc(-c4cnn(C5CCOCC5)c4)cc3)c2=O)CC1 [Compound I-1614] | 200 to 1000
6 | O=C(c1ccc(F)cc1)N1CCC(O)(Cn2cnc3c(cnn3-c3ccc(-c4cnn(C5COC5)c4)cc3)c2=O)CC1 [Compound I-1615] | 200 to 1000
7 | CC(C)(CO)n1cc(-c2ccc(-n3ncc4c(=O)n(CC5(O)CCN(C(=O)c6ccc(F)cc6)CC5)cnc43)cc2)cn1 [Compound I-1616] | 200 to 1000
8 | CC(C)(O)Cn1cc(-c2ccc(-n3ncc4c(=O)n(CC5(O)CCN(C(=O)c6ccc(F)cc6)CC5)cnc43)cc2)cn1 [Compound I-1617] | 200 to 1000
9 | CN1CCC2(CC1)CCN(c1ccc(-n3ncc4c(=O)n(CC5(O)CCN(C(=O)c6ccc(F)cc6)CC5)cnc43)cc1)CC2 [Compound I-1621] | < 200
10 | CN1CCC2(CC1)CCN(c1ccc(-n3ncc4c(=O)n(CC5(O)CCN(C(=O)C6CC6)CC5)cnc43)cc1)CC2 [Compound I-1622] | < 200
11 | Cc1cnn(-c2ccc(-n3ncc4c(=O)n(CC5(O)CCN(C(=O)c6ccc(F)cc6)CC5)cnc43)cc2)c1 [Compound I-1623] | 1000 to 10000
12 | CC(=O)N1CCC(O)(Cn2cnc3c(cnn3-c3ccc(Cl)cc3)c2=O)CC1 [Compound I-1625] | > 10000
13 | CC1(C(=O)N2CCC(O)(Cn3cnc4c(cnn4-c4ccc(Cl)cc4)c3=O)CC2)CC1 [Compound I-1632] | 1000 to 10000
14 | CC1(C(=O)N2CCC(O)(Cn3cnc4c(cnn4-c4ccc(N5CC(N6CCOCC6)C5)cc4)c3=O)CC2)CC1 [Compound I-1636] | 200 to 1000
15 | CC1(C(=O)N2CCC(O)(Cn3cnc4c(cnn4-c4cccc(N5CC(N6CCOCC6)C5)c4)c3=O)CC2)CC1 [Compound I-1637] | 200 to 1000
16 | C[C@@H]1CN(c2ccc(-n3ncc4c(=O)n(CC5(O)CCN(C(=O)C6(C)CC6)CC5)cnc43)cc2)C[C@H](C)N1C [Compound I-1638] | < 200
17 | C[C@H]1CN(c2ccc(-n3ncc4c(=O)n(CC5(O)CCN(C(=O)C6(C)CC6)CC5)cnc43)cc2)CCN1C [Compound I-1639] | < 200
18 | C[C@@H]1CN(c2ccc(-n3ncc4c(=O)n(CC5(O)CCN(C(=O)C6(C)CC6)CC5)cnc43)cc2)CCN1C [Compound I-1640] | < 200
19 | CN1CCN(c2ccc(-n3ncc4c(=O)n(CC5(O)CCN(C(=O)C6(C)CC6)CC5)cnc43)cc2)CC1 [Compound I-1641] | < 200
20 | CC1(C(=O)N2CCC(O)(Cn3cnc4c(cnn4-c4ccc(N5CCC(C6COC6)CC5)cc4)c3=O)CC2)CC1 [Compound I-1642] | 200 to 1000
21 | CC1(C(=O)N2CCC(O)(Cn3cnc4c(cnn4-c4ccc(N5CC6CC(C5)O6)cc4)c3=O)CC2)CC1 [Compound I-1643] | 200 to 1000
22 | CC1CN(c2cccc(-n3ncc4c(=O)n(CC5(O)CCN(C(=O)C6(C)CC6)CC5)cnc43)c2)CC(C)N1C (stereo not drawn) [Compound I-1645] | < 200
23 | C[C@H]1CN(c2cccc(-n3ncc4c(=O)n(CC5(O)CCN(C(=O)C6(C)CC6)CC5)cnc43)c2)CCN1C [Compound I-1646] | < 200
24 | O=C(c1ccc(F)cc1)N1CCC(O)(Cn2cnc3c(cnn3-c3ccc(N4CCCn5nccc54)cc3)c2=O)CC1 [Compound I-1654] | 200 to 1000

Row | Compound | IC50 [nM]
25 | O=C(C1CC1)N1CCC(O)(Cn2cnc3c(cnn3-c3ccc(N4CCC(O)C4)cc3)c2=O)CC1 (stereo not drawn) [Compound I-1655] | 1000 to 10000
26 | CC1(O)CCN(c2ccc(-n3ncc4c(=O)n(CC5(O)CCN(C(=O)C6CC6)CC5)cnc43)cc2)C1 (stereo not drawn) [Compound I-1657] | 1000 to 10000
27 | Cn1cc(-c2ccc(-n3ncc4c(=O)n(CC5(O)CCN(C(=O)c6ccc(F)cc6)CC5)cnc43)cc2)cn1 [Compound I-1672] | 1000 to 10000
28 | O=C(C1CC1)N1CCC(O)(Cn2cnc3c(cnn3-c3ccc(-c4cnn5c4COCC5)cc3)c2=O)CC1 [Compound I-1673] | 1000 to 10000
29 | CC1(C(=O)N2CCC(O)(Cn3cnc4c(cnn4-c4ccc(N5CC(C(C)(C)O)C5)cc4)c3=O)CC2)CC1 [Compound I-1674] | 200 to 1000
30 | CC1(C(=O)N2CCC(O)(Cn3cnc4c(cnn4-c4cccc(N5CCC(F)(F)CC5)c4)c3=O)CC2)CC1 [Compound I-1675] | < 200
31 | CC1(C(=O)N2CCC(O)(Cn3cnc4c(cnn4-c4cccc(N5CC(C(C)(C)O)C5)c4)c3=O)CC2)CC1 [Compound I-1676] | < 200
32 | CC1(C(=O)N2CCC(O)(Cn3cnc4c(cnn4-c4ccc(N5CC(O)C5)cc4)c3=O)CC2)CC1 [Compound I-1677] | 200 to 1000
33 | CC1(C(=O)N2CCC(O)(Cn3cnc4c(cnn4-c4cccc(N5CC(O)C5)c4)c3=O)CC2)CC1 [Compound I-1678] | 200 to 1000
34 | CC1(C(=O)N2CCC(O)(Cn3cnc4c(cnn4-c4ccc(N5CC(F)C5)cc4)c3=O)CC2)CC1 [Compound I-1679] | 200 to 1000
35 | CC1(C(=O)N2CCC(O)(Cn3cnc4c(cnn4-c4cccc(N5CC(F)C5)c4)c3=O)CC2)CC1 [Compound I-1680] | 200 to 1000
36 | CN1CC2CCC(C1)N2c1ccc(C(=O)N2CCC(O)(Cn3cnc4c(cnn4-c4ccc(F)cc4)c3=O)CC2)cc1 [Compound I-1681] | 1000 to 10000
37 | O=C(c1ccc(N2CCN3CCC2CC3)cc1)N1CCC(O)(Cn2cnc3c(cnn3-c3ccc(F)cc3)c2=O)CC1 [Compound I-1682] | 1000 to 10000
38 | O=C(c1ccc(N2CCCN3CCCC3C2)cc1)N1CCC(O)(Cn2cnc3c(cnn3-c3ccc(F)cc3)c2=O)CC1 (stereo not drawn) [Compound I-1683] | 1000 to 10000
39 | O=C(c1cnc(C2CC2)o1)N1CCC(O)(Cn2cnc3c(cnn3-c3ccc(-n4cc(CO)cn4)cc3)c2=O)CC1 [Compound I-1684] | < 200
40 | O=C(c1cnc(C2CC2)o1)N1CCC(O)(Cn2cnc3c(cnn3-c3ccc(-n4cc(C(F)(F)F)cn4)cc3)c2=O)CC1 [Compound I-1685] | < 200
41 | O=C(c1cnc(C2CC2)o1)N1CCC(O)(Cn2cnc3c(cnn3-c3ccc(-n4cc(Cl)cn4)cc3)c2=O)CC1 [Compound I-1686] | < 200
42 | Cc1ncc(C(=O)N2CCC(O)(Cn3cnc4c(cnn4-c4ccc(-n5cc(CO)cn5)cc4)c3=O)CC2)o1 [Compound I-1687] | < 200
43 | Cc1ncc(C(=O)N2CCC(O)(Cn3cnc4c(cnn4-c4ccc(-n5cc(C(F)(F)F)cn5)cc4)c3=O)CC2)o1 [Compound I-1688] | < 200
44 | C[C@@H]1CN(c2cccc(-n3ncc4c(=O)n(CC5(O)CCN(C(=O)C6(C)CC6)CC5)cnc43)c2)CCN1C [Compound I-1689] | < 200
45 | CN1CCN(c2cccc(-n3ncc4c(=O)n(CC5(O)CCN(C(=O)C6(C)CC6)CC5)cnc43)c2)CC1 [Compound I-1690] | < 200
46 | CC1(C(=O)N2CCC(O)(Cn3cnc4c(cnn4-c4cccc(N5CCC(C6COC6)CC5)c4)c3=O)CC2)CC1 [Compound I-1691] | 200 to 1000

same assay, conditions: USP7 assay A and B (table does not say which assay per compound); read-out: USP7_IC50

Row | Compound | IC50 [nM]
47 | O=C(c1ccc2c(c1)CCO2)N1CCC(O)(Cn2cnc3c(cnn3-c3ccc(Cl)cc3)c2=O)CC1 [Compound I-1521] | 1000 to 10000
48 | Cc1ccc(C(=O)N2CCC(O)(Cn3cnc4c(cnn4-c4ccc(Cl)cc4)c3=O)CC2)cc1F [Compound I-1523] | 1000 to 10000
49 | Cc1ncc(C(=O)N2CCC(O)(Cn3cnc4c(cnn4-c4ccc(Cl)cc4)c3=O)CC2)o1 [Compound I-1524] | 1000 to 10000
50 | CN(C)C(=O)N1CCC(O)(Cn2cnc3c(cnn3-c3ccc(N4CCN5CCCCC5C4)cc3)c2=O)CC1 (stereo not drawn) [Compound I-1525] | 1000 to 10000
51 | CN(C)C(=O)N1CCC(O)(Cn2cnc3c(cnn3-c3ccc(-n4cc(C(F)(F)F)cn4)cc3)c2=O)CC1 [Compound I-1526] | 1000 to 10000
52 | O=C(c1cc2n(n1)CCO2)N1CCC(O)(Cn2cnc3c(cnn3-c3ccc(Cl)cc3)c2=O)CC1 [Compound I-1527] | 1000 to 10000
53 | O=C(c1ccc(Oc2ncccn2)cc1)N1CCC(O)(Cn2cnc3c(cnn3-c3ccc(Cl)cc3)c2=O)CC1 [Compound I-1528] | 1000 to 10000
54 | O=C(c1ccc(-n2ccnn2)cc1)N1CCC(O)(Cn2cnc3c(cnn3-c3ccc(F)cc3)c2=O)CC1 [Compound I-1535] | 200 to 1000
55 | Cc1ccc(-n2ncc3c(=O)n(CC4(O)CCN(C(=O)c5cnc(C6CC6)o5)CC4)cnc32)cc1 [Compound I-1542] | 200 to 1000
56 | CN(C)C(=O)N1CCC(O)(Cn2cnc3c(cnn3-c3ccc(NCCN4CCCCC4)cc3)c2=O)CC1 [Compound I-1543] | 200 to 1000
57 | CN(C)C(=O)N1CCC(O)(Cn2cnc3c(cnn3-c3ccc(NC4CC(C)(C)C4)cc3)c2=O)CC1 [Compound I-1544] | 1000 to 10000
58 | O=C(c1cc2n(n1)CCCO2)N1CCC(O)(Cn2cnc3c(cnn3-c3ccc(Cl)cc3)c2=O)CC1 [Compound I-1569] | 1000 to 10000
59 | CN(C)C(=O)Nc1ccc(-n2ncc3c(=O)n(CC4(O)CCN(C(=O)c5ccc(F)cc5)CC4)cnc32)cc1 [Compound I-1576] | 1000 to 10000
60 | O=C(C1CC1)N1CCC(O)(Cn2cnc3c(cnn3-c3ccc(N4CCN5CCCCC5C4)cc3)c2=O)CC1 (stereo not drawn) [Compound I-1584] | 200 to 1000
61 | O=C(c1cnc(C2CC2)o1)N1CCC(O)(Cn2cnc3c(cnn3-c3ccc(-c4ccccc4)cc3)c2=O)CC1 [Compound I-1659] | 200 to 1000
62 | CN(C)C(=O)N1CCC(O)(Cn2cnc3c(cnn3-c3cccc(-n4cc(Cl)cn4)c3)c2=O)CC1 [Compound I-1666] | > 10000
63 | O=C(C1CC1)N1CCC(O)(Cn2cnc3c(cnn3-c3ccc(OC4CCOCC4)cc3)c2=O)CC1 [Compound I-1667] | 1000 to 10000
